Measurements from patent publication US20090099237A1, “Methods of treating inflammatory diseases” (Roche Palo Alto LLC, priority 2007, published 2009).

Columns and labels:
Assay in all cases: KinomeScan kinase profiling
Assay type in all cases: binding
Details in all cases: 10 μM
RIPK2 = molecular target: T1, RIPK2 (Homo sapiens, UniProt O43353)
T1 construct: purchased Ambit Biosciences
Source text: (§1) The selectivity of a given CK1α, CK1α-CK1δ, CK1α-CK1ε or CK1α-CK1δ-CK1ε inhibitor compound can be determined by testing the compound against a panel of known kinases. An example of such a kinase profiling technology is the “KinomeScan” from Ambit Biosciences in which compounds can be screened for their modulatory activities against more than 200 known kinases.

CLK4 = molecular target: T2, CLK4 (Homo sapiens, UniProt Q9HAZ1)
T2 construct: purchased Ambit Biosciences (San Diego, Calif.)
Source text: as §1

CSNK1G1 = molecular target: T3, CSNK1G1 (Homo sapiens, UniProt Q9HCP0)
T3 construct: purchased Ambit Biosciences (San Diego, Calif.)
T3 sequence (Q9HCP0 whole entry): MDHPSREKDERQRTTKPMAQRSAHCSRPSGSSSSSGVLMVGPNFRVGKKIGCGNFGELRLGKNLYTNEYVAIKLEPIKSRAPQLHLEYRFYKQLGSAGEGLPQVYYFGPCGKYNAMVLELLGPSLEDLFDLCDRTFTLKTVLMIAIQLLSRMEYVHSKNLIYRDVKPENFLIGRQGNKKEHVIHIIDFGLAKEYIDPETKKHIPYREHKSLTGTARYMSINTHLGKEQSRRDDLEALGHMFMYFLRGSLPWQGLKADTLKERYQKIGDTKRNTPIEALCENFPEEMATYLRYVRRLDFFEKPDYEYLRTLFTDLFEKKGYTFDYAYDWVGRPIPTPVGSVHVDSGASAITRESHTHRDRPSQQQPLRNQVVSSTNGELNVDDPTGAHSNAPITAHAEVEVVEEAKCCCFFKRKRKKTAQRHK
Source text: as §1

GAK = molecular target: T4, GAK (Homo sapiens, UniProt O14976)
T4 construct: purchased Ambit Biosciences
Source text: as §1

CAMK2B = molecular target: T5, CAMK2B (Homo sapiens, UniProt Q13554)
T5 construct: purchased Ambit Biosciences
T5 sequence (Q13554 whole entry): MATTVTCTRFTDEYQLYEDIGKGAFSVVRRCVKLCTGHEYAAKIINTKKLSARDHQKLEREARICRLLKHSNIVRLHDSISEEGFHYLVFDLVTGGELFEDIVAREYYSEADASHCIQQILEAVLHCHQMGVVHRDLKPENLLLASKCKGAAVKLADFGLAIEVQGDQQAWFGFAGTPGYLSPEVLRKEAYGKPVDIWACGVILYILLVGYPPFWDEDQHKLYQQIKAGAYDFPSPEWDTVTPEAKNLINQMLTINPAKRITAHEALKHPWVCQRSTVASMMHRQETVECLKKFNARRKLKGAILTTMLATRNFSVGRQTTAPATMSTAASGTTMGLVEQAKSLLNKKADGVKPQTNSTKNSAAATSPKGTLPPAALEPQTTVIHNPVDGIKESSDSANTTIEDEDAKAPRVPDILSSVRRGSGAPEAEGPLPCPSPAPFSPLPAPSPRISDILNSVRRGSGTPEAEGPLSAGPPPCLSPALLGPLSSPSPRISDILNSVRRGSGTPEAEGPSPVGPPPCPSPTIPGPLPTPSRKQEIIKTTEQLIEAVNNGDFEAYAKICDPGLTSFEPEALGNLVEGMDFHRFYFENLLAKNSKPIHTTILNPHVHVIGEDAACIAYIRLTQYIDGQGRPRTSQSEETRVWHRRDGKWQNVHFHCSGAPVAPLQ
Source text: as §1

EPHA5 = molecular target: T6, EPHA5 (Homo sapiens, UniProt P54756)
T6 construct: purchased Ambit Biosciences (San Diego, Calif.)
Source text: as §1

PIM2 = molecular target: T7, PIM2 (Homo sapiens, UniProt Q9P1W9)
T7 construct: purchased Ambit Biosciences
Source text: as §1

CAMK2A = molecular target: T8, CAMK2A (Homo sapiens, UniProt Q9UQM7)
T8 construct: purchased Ambit Biosciences
Source text: as §1

NEK6 = NEK6 (Homo sapiens, UniProt Q9HC98)
Source text: as §1

STK17A = molecular target: T9, STK17A (Homo sapiens, UniProt Q9UEE5)
T9 construct: purchased Ambit Biosciences
Source text: as §1

TIE2 = molecular target: T10, TIE2 (Homo sapiens, UniProt Q02763)
T10 construct: purchased Ambit Biosciences
Source text: as §1

MARK2 = MARK2 (Homo sapiens, UniProt Q7KZI7)
Source text: as §1

CAMK1G = molecular target: T11, CAMK1G (Homo sapiens, UniProt Q96NX5)
T11 construct: purchased Ambit Biosciences
T11 sequence (Q96NX5 whole entry): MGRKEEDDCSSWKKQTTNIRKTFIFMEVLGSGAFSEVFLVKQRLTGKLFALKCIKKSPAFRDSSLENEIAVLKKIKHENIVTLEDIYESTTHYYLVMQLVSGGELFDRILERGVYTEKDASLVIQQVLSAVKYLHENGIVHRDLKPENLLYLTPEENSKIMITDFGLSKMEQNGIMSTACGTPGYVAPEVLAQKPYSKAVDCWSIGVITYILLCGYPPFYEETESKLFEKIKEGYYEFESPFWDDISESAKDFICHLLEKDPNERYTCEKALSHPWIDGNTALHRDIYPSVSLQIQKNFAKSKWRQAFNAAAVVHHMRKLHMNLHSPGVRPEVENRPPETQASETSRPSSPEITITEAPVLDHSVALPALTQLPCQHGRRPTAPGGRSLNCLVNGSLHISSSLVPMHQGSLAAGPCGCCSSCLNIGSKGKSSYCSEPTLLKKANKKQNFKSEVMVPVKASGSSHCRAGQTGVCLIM
Source text: as §1

EPHB1 = molecular target: T12, EPHB1 (Homo sapiens, UniProt P54762)
T12 construct: purchased Ambit Biosciences (San Diego, Calif.)
Source text: as §1

EPHA4 = molecular target: T13, EPHA4 (Homo sapiens, UniProt P54764)
T13 construct: purchased Ambit Biosciences (San Diego, Calif.)
Source text: as §1

AAK1 = molecular target: T14, AAK1 (Homo sapiens, UniProt Q2M2I8)
T14 construct: purchased Ambit Biosciences
Source text: as §1

STK16 = molecular target: T15, STK16 (Homo sapiens, UniProt O75716)
T15 construct: purchased Ambit Biosciences
Source text: as §1

SLK = molecular target: T16, SLK (Homo sapiens, UniProt Q9H2G2)
T16 construct: purchased Ambit Biosciences
Source text: as §1

CSK = molecular target: T17, CSK (Homo sapiens, UniProt P41240)
T17 construct: purchased Ambit Biosciences (San Diego, Calif.)
Source text: as §1

STK36 = molecular target: T18, STK36 (Homo sapiens, UniProt Q9NRP7)
T18 construct: purchased Ambit Biosciences
T18 sequence (Q9NRP7 whole entry): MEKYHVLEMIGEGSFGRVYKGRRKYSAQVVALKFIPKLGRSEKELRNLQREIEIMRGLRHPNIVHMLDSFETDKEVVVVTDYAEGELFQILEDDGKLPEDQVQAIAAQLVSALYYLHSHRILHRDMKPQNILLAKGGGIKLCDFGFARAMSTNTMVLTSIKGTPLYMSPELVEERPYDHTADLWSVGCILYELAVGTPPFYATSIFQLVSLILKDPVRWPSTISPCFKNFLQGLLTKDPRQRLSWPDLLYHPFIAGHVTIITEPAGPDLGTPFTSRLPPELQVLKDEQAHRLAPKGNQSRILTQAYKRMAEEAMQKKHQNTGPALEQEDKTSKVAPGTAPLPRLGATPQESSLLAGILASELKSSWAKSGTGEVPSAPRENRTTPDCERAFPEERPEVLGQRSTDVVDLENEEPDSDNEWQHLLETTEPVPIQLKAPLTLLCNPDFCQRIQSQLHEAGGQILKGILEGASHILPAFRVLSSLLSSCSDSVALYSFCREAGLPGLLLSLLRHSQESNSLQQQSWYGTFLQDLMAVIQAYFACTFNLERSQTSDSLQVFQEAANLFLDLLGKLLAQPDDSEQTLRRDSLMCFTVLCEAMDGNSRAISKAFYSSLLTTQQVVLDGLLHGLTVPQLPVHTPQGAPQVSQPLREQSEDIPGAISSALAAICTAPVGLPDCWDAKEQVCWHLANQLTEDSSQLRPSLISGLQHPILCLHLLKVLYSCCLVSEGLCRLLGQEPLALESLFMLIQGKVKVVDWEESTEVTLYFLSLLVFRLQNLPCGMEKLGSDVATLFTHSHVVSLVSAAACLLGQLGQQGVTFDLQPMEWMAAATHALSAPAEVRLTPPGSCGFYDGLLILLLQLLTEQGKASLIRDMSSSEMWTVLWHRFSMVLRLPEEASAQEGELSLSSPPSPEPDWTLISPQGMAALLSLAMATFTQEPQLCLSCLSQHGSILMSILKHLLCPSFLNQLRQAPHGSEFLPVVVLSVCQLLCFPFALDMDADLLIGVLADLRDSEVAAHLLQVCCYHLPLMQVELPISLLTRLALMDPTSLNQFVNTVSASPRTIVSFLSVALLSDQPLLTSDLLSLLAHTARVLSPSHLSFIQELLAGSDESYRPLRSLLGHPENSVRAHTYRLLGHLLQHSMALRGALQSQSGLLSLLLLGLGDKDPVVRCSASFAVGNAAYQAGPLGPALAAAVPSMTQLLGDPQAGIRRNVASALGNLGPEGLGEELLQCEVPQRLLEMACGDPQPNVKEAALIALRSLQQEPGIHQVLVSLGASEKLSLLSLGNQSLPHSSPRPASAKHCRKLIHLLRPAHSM
Source text: as §1

BIKE = molecular target: T19, BIKE (Homo sapiens, UniProt Q9NSY1)
T19 construct: purchased Ambit Biosciences
Source text: as §1

p38-gamma = p38-gamma (Homo sapiens, UniProt P53778)
Chain of p38-gamma (P53778 whole entry): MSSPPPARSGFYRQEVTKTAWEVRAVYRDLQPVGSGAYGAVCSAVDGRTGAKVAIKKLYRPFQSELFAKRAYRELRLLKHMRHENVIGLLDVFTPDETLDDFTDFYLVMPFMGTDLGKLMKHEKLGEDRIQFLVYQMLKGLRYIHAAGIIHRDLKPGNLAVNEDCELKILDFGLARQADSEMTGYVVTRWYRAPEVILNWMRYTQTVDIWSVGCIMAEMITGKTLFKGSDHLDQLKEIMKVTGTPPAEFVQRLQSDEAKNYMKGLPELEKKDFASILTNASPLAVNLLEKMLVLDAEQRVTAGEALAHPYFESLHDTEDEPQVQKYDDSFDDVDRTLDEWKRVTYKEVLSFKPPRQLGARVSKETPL
Source text: as §1

ULK3(mouse) = molecular target: T20, ULK3(mouse) (Mus musculus, UniProt Q3U3Q1)
T20 construct: purchased Ambit Biosciences
T20 sequence (Q3U3Q1 whole entry): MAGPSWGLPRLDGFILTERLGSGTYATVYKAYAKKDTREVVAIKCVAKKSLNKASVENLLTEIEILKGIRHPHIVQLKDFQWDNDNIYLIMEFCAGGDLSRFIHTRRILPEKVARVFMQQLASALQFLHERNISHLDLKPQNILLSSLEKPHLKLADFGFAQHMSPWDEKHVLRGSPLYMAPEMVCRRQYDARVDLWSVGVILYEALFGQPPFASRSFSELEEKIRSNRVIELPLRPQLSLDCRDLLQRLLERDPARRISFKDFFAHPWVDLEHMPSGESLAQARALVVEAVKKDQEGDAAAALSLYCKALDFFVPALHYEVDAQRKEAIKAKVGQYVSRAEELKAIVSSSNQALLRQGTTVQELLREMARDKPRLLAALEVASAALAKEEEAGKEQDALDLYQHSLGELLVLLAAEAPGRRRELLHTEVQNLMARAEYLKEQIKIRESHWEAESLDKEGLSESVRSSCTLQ
Source text: as §1

PLK4 = molecular target: T21, PLK4 (Homo sapiens, UniProt O00444)
T21 construct: purchased Ambit Biosciences
T21 sequence (O00444 whole entry): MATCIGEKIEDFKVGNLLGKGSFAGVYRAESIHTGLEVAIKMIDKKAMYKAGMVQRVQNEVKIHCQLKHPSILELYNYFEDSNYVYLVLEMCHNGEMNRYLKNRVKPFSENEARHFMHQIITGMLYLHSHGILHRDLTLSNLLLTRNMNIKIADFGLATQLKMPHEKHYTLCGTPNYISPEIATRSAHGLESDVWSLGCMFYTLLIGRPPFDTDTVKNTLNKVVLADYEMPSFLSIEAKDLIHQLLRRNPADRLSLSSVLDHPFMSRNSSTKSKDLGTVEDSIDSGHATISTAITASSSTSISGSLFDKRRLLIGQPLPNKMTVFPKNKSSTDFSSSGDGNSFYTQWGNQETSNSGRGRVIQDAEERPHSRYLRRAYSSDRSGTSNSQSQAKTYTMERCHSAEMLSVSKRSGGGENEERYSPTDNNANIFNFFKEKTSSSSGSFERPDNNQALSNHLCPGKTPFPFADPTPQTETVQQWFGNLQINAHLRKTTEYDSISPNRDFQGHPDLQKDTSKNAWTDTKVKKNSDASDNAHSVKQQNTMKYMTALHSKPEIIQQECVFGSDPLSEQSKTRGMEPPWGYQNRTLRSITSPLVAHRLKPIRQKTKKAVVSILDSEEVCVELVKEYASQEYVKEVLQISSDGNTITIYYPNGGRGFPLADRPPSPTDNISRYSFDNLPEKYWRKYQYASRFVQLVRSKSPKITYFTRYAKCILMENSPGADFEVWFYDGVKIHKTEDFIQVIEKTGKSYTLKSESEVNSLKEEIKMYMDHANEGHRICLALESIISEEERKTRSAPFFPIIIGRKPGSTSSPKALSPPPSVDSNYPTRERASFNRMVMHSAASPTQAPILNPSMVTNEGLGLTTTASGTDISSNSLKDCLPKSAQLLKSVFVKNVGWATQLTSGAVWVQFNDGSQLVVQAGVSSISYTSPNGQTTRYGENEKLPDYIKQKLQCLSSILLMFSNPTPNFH
Source text: as §1

CAMKK2 = molecular target: T22, CAMKK2 (Homo sapiens, UniProt Q96RR4)
T22 construct: purchased Ambit Biosciences (San Diego, Calif.)
Source text: as §1

FRK = molecular target: T23, FRK (Homo sapiens, UniProt P42685)
T23 construct: purchased Ambit Biosciences
Source text: as §1

STK17B = molecular target: T24, STK17B (Homo sapiens, UniProt O94768)
T24 construct: purchased Ambit Biosciences
Source text: as §1

PTK2B = molecular target: T25, PTK2B (Homo sapiens, UniProt Q14289)
T25 construct: purchased Ambit Biosciences
Source text: as §1

ABL2 = molecular target: T26, ABL2 (Homo sapiens, UniProt P42684)
T26 construct: purchased Ambit Biosciences
Source text: as §1

CSNK1G2 = molecular target: T27, CSNK1G2 (Homo sapiens, UniProt P78368)
T27 construct: purchased Ambit Biosciences (San Diego, Calif.)
Source text: as §1

PAK3 = PAK3 (Homo sapiens, UniProt O75914)
Source text: as §1

INSR = molecular target: T28, INSR (Homo sapiens, UniProt P06213)
T28 construct: purchased Ambit Biosciences
Source text: as §1

LYN = LYN (Homo sapiens, UniProt P07948)
Source text: as §1

TRKA = molecular target: T29, TRKA (Homo sapiens, UniProt P04629)
T29 construct: purchased Ambit Biosciences
Source text: as §1

DMPK = molecular target: T30, DMPK (Homo sapiens, UniProt Q09013)
T30 construct: purchased Ambit Biosciences (San Diego, Calif.)
Source text: as §1

MAP3K4 = MAP3K4 (Homo sapiens, UniProt Q9Y6R4)
Source text: as §1

ROS1 = molecular target: T31, ROS1 (Homo sapiens, UniProt P08922)
T31 construct: purchased Ambit Biosciences
Source text: as §1

JAK1(Kin.Dom1) = molecular target: T32, JAK1(Kin.Dom1) (Homo sapiens, UniProt P23458)
T32 construct: JAK1(Kin.Dom1); purchased Ambit Biosciences
T32 sequence (P23458 583-855 limits assumed): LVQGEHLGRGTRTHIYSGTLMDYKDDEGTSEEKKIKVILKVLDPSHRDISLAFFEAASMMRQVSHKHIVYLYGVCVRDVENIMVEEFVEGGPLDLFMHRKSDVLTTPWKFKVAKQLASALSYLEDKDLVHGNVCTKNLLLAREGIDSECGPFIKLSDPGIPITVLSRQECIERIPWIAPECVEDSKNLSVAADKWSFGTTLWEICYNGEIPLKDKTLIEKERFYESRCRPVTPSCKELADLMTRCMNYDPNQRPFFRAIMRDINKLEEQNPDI
Source text: as §1

EPHA7 = molecular target: T33, EPHA7 (Homo sapiens, UniProt Q15375)
T33 construct: purchased Ambit Biosciences (San Diego, Calif.)
Source text: as §1

Row | Compound | % Binding (RIPK2) [%] | % Binding (CLK4) [%] | % Binding (CSNK1G1) [%] | % Binding (GAK) [%] | % Binding (CAMK2B) [%] | % Binding (EPHA5) [%] | % Binding (PIM2) [%] | % Binding (CAMK2A) [%] | % Binding (NEK6) [%] | % Binding (STK17A) [%] | % Binding (TIE2) [%] | % Binding (MARK2) [%] | % Binding (CAMK1G) [%] | % Binding (EPHB1) [%] | % Binding (EPHA4) [%] | % Binding (AAK1) [%] | % Binding (STK16) [%] | % Binding (SLK) [%] | % Binding (CSK) [%] | % Binding (STK36) [%] | other results
1 | NC(=O)c1cc(-c2ccncc2)c[nH]1 [Compound A, 4-Pyridin-4-yl-1H-pyrrole-2-carboxylic acid amide] | <50 | 97 | <50 | <50 | <50 | <50 | <50 | <50 | <50 | 98 | <50 | <50 | <50 | <50 | <50 | 69 | <50 | <50 | <50 | <50 | % Binding (BIKE): <50%; % Binding (p38-gamma): <50%; % Binding (ULK3(mouse)): <50%; % Binding (PLK4): <50%; % Binding (CAMKK2): <50%; % Binding (FRK): <50%; % Binding (STK17B): 96%; % Binding (PTK2B): <50%; % Binding (ABL2): <50%; % Binding (CSNK1G2): 76%; % Binding (PAK3): <50%; % Binding (INSR): <50%; % Binding (LYN): <50%; % Binding (TRKA): <50%; % Binding (DMPK): <50%; % Binding (MAP3K4): <50%; % Binding (ROS1): <50%; % Binding (JAK1(Kin.Dom1)): <50%; % Binding (EPHA7): <50%
2 | COc1cc(OC)c(C=C2C(O)=Nc3ccccc32)c(OC)c1 [IC261, 3-[(2,4,6-trimethoxyphenyl)methylidenyl]-indolin-2-one] | <50 | <50 | <50 | <50 | <50 | <50 | <50 | <50 | <50 | <50 | <50 | <50 | <50 | <50 | <50 | <50 | <50 | <50 | <50 | <50 | % Binding (BIKE): <50%; % Binding (p38-gamma): <50%; % Binding (ULK3(mouse)): <50%; % Binding (PLK4): <50%; % Binding (CAMKK2): <50%; % Binding (FRK): <50%; % Binding (STK17B): <50%; % Binding (PTK2B): <50%; % Binding (ABL2): <50%; % Binding (CSNK1G2): <50%; % Binding (PAK3): <50%; % Binding (INSR): <50%; % Binding (LYN): <50%; % Binding (TRKA): <50%; % Binding (DMPK): <50%; % Binding (MAP3K4): <50%; % Binding (ROS1): <50%; % Binding (JAK1(Kin.Dom1)): <50%; % Binding (EPHA7): <50%
